Series [1] in a line: Liver microsomal metabolic stability, mouse. The format is in vitro ADME. The note with it: 0.5 mg/mL microsomes, 1 μM compound, NADPH. As to the method:
(§1) The reaction was stopped with tinidazole-containing acetonitrile at 0 min, 5 min, 10 min and 30 min, respectively. After vortexing for 10 min and centrifuging at 15,000 rmp for 10 min, 50 μL of the supernatant was injected into a 96-well plate. The metabolic stability of the compound was calculated by determining the relative reduction of the drug, calculated as half-life T1/2.
Background: Liver microsomes are vesicles of endoplasmic reticulum, rich in cytochrome P450 enzymes.

The test system of series [2] is Colo-205 cells. Briefly: Colo-205 tumor cell proliferation, CCK-8, 72 hours. The series is classed as cell-based. The note with it: for IC50: 72 hours, CCK-8, numeric values, read-out: Colo-205 IC50; for cell proliferation inhibitory activity (in words): Colo-205.
Series [3] is described as follows: Liver microsomal stability, comparisons in words across species. The format is in vitro ADME. The conditions noted are these: for stability of different kinds of liver microsomes (in words): different species, versus the comparative compounds. The protocol: as §1
Series [4] can be described thus: Liver microsomal metabolic stability, rat. The format is in vitro ADME. The note with it: 0.5 mg/mL microsomes, 1 μM compound, NADPH. As to the method:
as §1

A short description of series [5]: Liver microsomal metabolic stability, human. The conditions noted are these: 0.5 mg/mL microsomes, 1 μM compound, NADPH. The series is classed as in vitro ADME. The protocol: as §1
Series [6] in a line: Liver microsomal metabolic stability, dog. The series is classed as in vitro ADME. The conditions noted are these: 0.5 mg/mL microsomes, 1 μM compound, NADPH. As to the method: as §1
In series [7] the test system is T1, ERK1/2 kinase.
T1 construct: fused on or other part: Carna's ERK products carry a GST tag by vendor knowledge
Briefly: ERK1/2 kinase (Carna) inhibitory activity, Caliper mobility shift. The note with it: for IC50: numeric values, read-out: ERK½ IC50. The format is biochemical. The method, boiled down: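 Compounds tested from 10 μM top concentration, 3-fold dilutions to 10 points, in duplicate, in 1× kinase buffer; Caliper mobility-shift readout.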

The target of series [8] is T2, CYP1A2 (Homo sapiens, UniProt P05177).
T2 sequence (P05177 1-516): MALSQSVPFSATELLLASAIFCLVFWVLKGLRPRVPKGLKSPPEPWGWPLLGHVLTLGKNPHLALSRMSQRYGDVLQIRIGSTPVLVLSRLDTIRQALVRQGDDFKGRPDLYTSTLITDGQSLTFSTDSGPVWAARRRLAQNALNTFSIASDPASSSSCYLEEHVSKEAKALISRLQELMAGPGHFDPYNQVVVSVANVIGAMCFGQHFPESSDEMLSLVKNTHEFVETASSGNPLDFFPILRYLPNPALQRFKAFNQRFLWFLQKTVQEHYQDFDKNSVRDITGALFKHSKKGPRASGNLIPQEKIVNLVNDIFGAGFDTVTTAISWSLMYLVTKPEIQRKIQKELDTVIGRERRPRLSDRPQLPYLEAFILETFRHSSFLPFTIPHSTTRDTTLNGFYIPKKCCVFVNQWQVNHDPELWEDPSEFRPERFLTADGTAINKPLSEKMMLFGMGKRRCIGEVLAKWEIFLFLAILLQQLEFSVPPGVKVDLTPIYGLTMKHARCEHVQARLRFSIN
Briefly: Direct inhibition test (DI test) in human liver microsomes, CYP1A2. The conditions noted are these: microsomes. The protocol: (2) Direct inhibition test (DI test): A system containing 100 μL of human liver microsomes (final concentration of 0.2 mg/mL) was subjected to a direct inhibition incubation, and the system contained NADPH (final concentration of 1 mM), 10 μM compound, positive inhibitor cocktail (10 μM ketoconazole, 10 μM quinidine, 100 μM sulfaphenazole, 10 μM α-naphthoflavone, 1,000 μM tranylcypromine), negative control (BPS of 0.1% DMSO), and mixed probe substrates (10 μM midazolam, 100 μM testosterone, 10 μM dextromethorphan, […], 100 μM phenacetin, 100 μM mephenytoin). After 20 minutes of incubation, the reaction was stopped. The relative activity of the enzyme was calculated by measuring the relative production of metabolites.

Series [9] deals with Colo-205 transplanted tumor. Put plainly: Growth inhibition of nude mice Colo-205 transplanted tumor. The series is classed as in vivo. The conditions noted are these: for effect on the tumor weight (in words) / tumor growth of Colo-205 transplanted tumor nude mice (in words): dose of 50 mg/kg or 25 mg/kg. As to the method: The tumor tissue in the vigorous growth phase was cut into about 1.5 mm^3 and inoculated subcutaneously in the right axilla of nude mice under sterile conditions. The diameter of subcutaneous transplanted tumors in nude mice was measured with a vernier caliper, and the mice were randomly divided into groups when the average tumor volume reached about 130 mm^3. The embodiment compounds (injection water containing 1% Tween 80 were configured to a desired concentration for later use) were orally administered daily at a given dose for three consecutive weeks, and the solvent control group was administered with the same amount of solvent. During the whole test, the diameter of transplanted tumor was measured twice a week, and the mice were weighed at the same time. The calculation formula of tumor volume (TV) is expressed as TV=1/2×a×b^2, wherein a and b represent length and width, respectively. The relative tumor volume (RTV) was calculated according to the measurement results, and the calculation formula is RTV=Vt/V0, wherein V0 is the tumor volume measured when administered in separate cages (i.e., d0), and Vt is the tumor volume at the time of each measurement.

Series [10] is described as follows: In-vivo pharmacokinetic parameters in mice. Details: species or system Balb-c mice. The protocol:
(§2) Six male SPF grade SD rats or Balb-c mice (Shanghai Sipple-Bikai Laboratory Animal) were divided into two groups, and the tested compounds were prepared into appropriate solutions or suspensions; one group was administered intravenously (with a dose of 1 mg/kg), and the other group was administered orally (with a dose of 5 mg/kg). Blood samples were collected by jugular vein puncture, and each sample was collected with a volume of about 0.2 mL/time point, and heparin sodium was used for anticoagulation. The time points of blood collection were listed below: 5, 15 and 30 min […], 1, 2, 4, 6, 8 and 24 h after administration; the collected blood samples were placed on ice and centrifuged to separate plasma (centrifugation conditions: 8,000 rpm, 6 min, 2 to 8° C.), and the collected plasma was stored at −80° C. before analysis. Plasma samples were analyzed by LC-MS/MS.
(§3) The pharmacokinetic parameters such as AUC0-t, AUC0-∞, MRT0-∞, Cmax, Tmax, T1/2 and Vd of the tested compounds and their mean values and standard deviations were calculated by the pharmacokinetic calculation software WinNonlin5.2 non-compartmental model according to the plasma concentration data. In addition, the bioavailability (F) was calculated by the following formula.
(§4) For samples with concentrations below the lower limit of quantitation, while pharmacokinetic parameter calculations were performed, samples sampled before Cmax was reached should be calculated as a zero value and samples sampled after Cmax was reached should be calculated as below limit of quantitation (BLQ).

Series [11] in a line: In-vivo pharmacokinetic parameters in SD rats. The protocol: as §2, §3, §4
[12] abbreviates: male, Balb-c, mouse, plasma, IV, 1 mg/kg.
[13] abbreviates: male, Balb-c, mouse, plasma, PO, 5 mg/kg.
Setting [14] is: male, rat, plasma, 1 mg/kg, IV, 1 mpk.
[15] abbreviates: male, rat, plasma, 5 mg/kg, PO, 5 mpk.

The text below walks through data of patent US20230312564A1, “AROMATIC RING-LACTAM COMPOUND, PREPARATION METHOD THEREFOR AND USE THEREOF” (SHANGHAI RINGENE BIOPHARMA CO., LTD., priority 2020, published 2023).

As to `COc1cc(F)cc([C@@H](CO)NC(=O)[C@@H](C)N2Cc3ccc(-c4nc(NC5CCOCC5)ncc4Cl)c(F)c3C2=O)c1` [Embodiment 33], the “Liver microsomal stability T1/2” value in series [1] came to 10 min; in series [4], 17 min; in [5], 18 min; in series [6], 51 min. In addition, the values for the IC50 in series [2], in series [7] and in series [8] were 14.1 nM, 0.9 nM and more than 10000 nM, respectively. In addition, in series [2], the “cell proliferation inhibitory activity (in words)” value was “strong cell proliferation inhibitory activity”. For the same compound, the “stability in liver microsomes (in words)” value in [3] (mouse, rat and human, compared with comparative compound 5) is reported as “significantly improved”. Also, the “enzyme inhibitory activity (in words)” value in series [7] is recorded as “extremely strong enzyme inhibitory activity”.
As for `Cc1cccc([C@@H](CO)NC(=O)[C@@H](C)N2Cc3ccc(-c4nc(NC5CCOCC5)ncc4F)c(F)c3C2=O)c1` [Embodiment 31], the “Liver microsomal stability T1/2” value in series [1] is 17 min; in [4], 17 min; in series [5], 13 min; in series [6] it was 122 min. Moreover, the IC50 (usually the concentration needed to halve the response being measured) was 17.4 nM in [2], 0.9 nM in [7] and more than 10000 nM in [8]. The “cell proliferation inhibitory activity (in words)” value in [2] is “strong cell proliferation inhibitory activity”. Moreover, the “stability of different kinds of liver microsomes (in words)” value in series [3] was “significant advantages”. For the same compound, the “effect on the tumor weight (in words)” value in series [9] is “no significant effect on the tumor weight”. In series [9], the “tumor growth of Colo-205 transplanted tumor nude mice (in words)” value was “significantly inhibited the tumor growth”. Further, in [7], the “enzyme inhibitory activity (in words)” value is “extremely strong enzyme inhibitory activity”.
On to `C[C@H](C(=O)N[C@H](CO)c1cccc(Cl)c1)N1Cc2ccc(-c3nc(NC4CCOCC4)ncc3F)c(F)c2C1=O` [Embodiment 37], for which the “Liver microsomal stability T1/2” value in series [1] was found to be 12 min; in series [4] it was 14 min; in series [5], 11 min; in [6] it was 27 min. For the same compound, the values for the IC50 in [2] and in series [7] were 4.4 nM and less than 1 nM, respectively. In series [2], the “cell proliferation inhibitory activity (in words)” value is recorded as “strong cell proliferation inhibitory activity”. The “stability of different kinds of liver microsomes (in words)” value in series [3] was “significant advantages”. Besides, the T/C (commonly the result in the treated group divided by that in the control group, in per cent) in series [9] (50 mg/kg, qdx21, po) came out at 28.3%. For the same compound, the “Initial weight (D0)” value in series [9] (50 mg/kg, qdx21, po, D0) turned out to be 23.3 g. Moreover, the “Terminal weight (D21)” value in series [9] (50 mg/kg, qdx21, po, D21) was determined as 24.5 g. Moreover, in [9] (50 mg/kg, qdx21, po, initial), the Initial tumor volume came to 95 ± 19 mm^3. Also, the Terminal tumor volume in series [9] (50 mg/kg, qdx21, po, terminal) was found to be 285 ± 137 mm^3. The “effect on the tumor weight (in words)” value in series [9] is recorded as “no significant effect on the tumor weight”. Also, the “tumor growth of Colo-205 transplanted tumor nude mice (in words)” value in series [9] is “significantly inhibited the tumor growth”. Also, the results for the F in [10] (PO 5 mg/kg vs IV 1 mg/kg) and in series [11] (PO 5 mpk vs IV 1 mpk) were 54% and 17%, respectively. For the same compound, the total exposure AUC(0-inf) – broadly, total exposure, with the tail of the curve extrapolated – in [10] (setting [12]) was 0.586 µM·h; in series [10] (setting [13]) it was 1.58 µM·h; in series [11] (setting [14]), 0.538 µM·h; in [11] (setting [15]), 0.452 µM·h. Moreover, the AUC(0-t) (as a rule, the area under the concentration-time curve up to a stated or last time point) turned out to be 0.583 µM·h in series [10] (setting [12]), 1.57 µM·h in series [10] (setting [13]), 0.536 µM·h in series [11] (setting [14]) and 0.446 µM·h in series [11] (setting [15]). In addition, the MRT inf in series [10] (setting [12]) and in [11] (setting [14]) was 18 min each time. For the same compound, the clearance (usually the volume of plasma or blood freed of the substance per unit of time) in series [10] (setting [12]) is 50 mL/min/kg; in [11] (setting [14]), 54 mL/min/kg. In addition, the half-life (commonly the time in which the quantity being followed falls by half) in series [10] (setting [12]) is 48 min; in series [10] (setting [13]), 66 min; in series [11] (setting [14]), 48 min; in series [11] (setting [15]), 66 min. For the same compound, the Vd in series [10] (male, Balb-c, mouse, plasma, IV, 1 mg/kg, read-out: Vss) stood at 0.9 L/kg; in series [11] (male, rat, plasma, 1 mg/kg, IV, 1 mpk, read-out: Vss) it was 0.8 L/kg. For the same compound, the maximum concentration (Cmax) (as a rule, the maximum level reached in the sampled fluid or tissue) came out at 1680 nM in series [10] (setting [13]) and 396 nM in series [11] (setting [15]). For the same compound, the Tmax in series [10] (setting [13]) and in [11] (setting [15]) was 18 min throughout.
